Data published in patent US20060287320A1, “Preparation of thioarabinofuranosyl compounds and use thereof” (Southern Research Institute, priority 1998, published 2006).

Columns and labels:
[1] = system: protein synthesis in CEM cells; assay: Effect on protein synthesis ([3H]leucine incorporation) in CEM cells; assay type: cell-based; details: 150 nM, average of two experiments
Protocol: (§1) Radiolabeled precursors of DNA [^3H]dThd, RNA ([^3H]Urd), or protein ([^3H]leucine) were added to each treatment 30 minutes after the addition of each compound. Samples were taken 1, 2, 3 and 4 hours after the addition of radiolabeled precursors, and the incorporation of radioactivity into RNA, DNA, or protein were determined as described (Parker et al, Biochem. Pharmacol. 55: 1673-1681, 1998). Each number represents the average of two experiments.

[2] = system: DNA synthesis in CEM cells; assay: Effect on DNA synthesis ([3H]dThd incorporation) in CEM cells; assay type: cell-based; details: 150 nM, average of two experiments
Protocol: as §1

[3] = Phosphorylation in cell-free CEM extracts, wild-type; assay type: biochemical; details: wild-type CEM cell extract; 1 μm substrate
Protocol: (§2) The number in parentheses is the number of experiments performed. […] At various times after the initiation of the experiment, an aliquot of each reaction volume was removed and placed on DE-81 filters. The filters were washed with 1 mM ammonium formate and ethanol, and the amount of radioactivity on each filter was determined. […] This assay was verified by HPLC.

CEM cells [4] = assay: Effect of F-dUrd on metabolism (deamination) in CEM cells; assay type: cell-based; details: 100 nM, incubation time 8 hours
Protocol: The complete metabolism of each compound was determined as described in the legend to Table 12, and the percent of deaminated metabolites for each compound was determined.

SK-MEL 28 Melanoma = assay: In vitro IC50, 72 hour exposure, SRB assay; assay type: cell-based; details: read-out: IC50 Molar Values
Protocol: (§3) EXAMPLE 3 The following in vitro tests were carried out.
(§4) The above tests were carried out with a 72 hour exposure to the compound using Natural Red assay for all cell lines except SK-MEL 28 which was done with SRB assay.

[5] = Phosphorylation in cell-free CEM extracts, araC-resistant; assay type: biochemical
Protocol: as §2

[6] = system: RNA synthesis in CEM cells; assay: Effect on RNA synthesis ([3H]Urd incorporation) in CEM cells; assay type: cell-based; details: 150 nM, average of two experiments
Protocol: as §1

SC HCT-116 Colon Tumor = assay: Response of SC HCT-116 Colon Tumor to Treatment; assay type: in vivo; details: Q 4H × 3 day 6-14
Protocol: (§5) The following in vivo tests were carried out to illustrate the effectiveness of the compounds of the present invention.

CAK1-1 Renal = assay: In vitro IC50, 72 hour exposure, Natural Red assay; assay type: cell-based; details: read-out: IC50 Molar Values
Protocol: as §3, §4

NC1-H23 Lung = assay: In vitro IC50, 72 hour exposure, Natural Red assay; assay type: cell-based; details: read-out: IC50 Molar Values
Protocol: as §3, §4

ZR-75-1 Mammary = assay: In vitro IC50, 72 hour exposure, Natural Red assay; assay type: cell-based; details: read-out: IC50 Molar Values
Protocol: as §3, §4

PC-3 Prostate = assay: In vitro IC50, 72 hour exposure, Natural Red assay; assay type: cell-based; details: read-out: IC50 Molar Values
Protocol: as §3, §4

LOX IMV1 Melanoma = assay: In vitro IC50, 72 hour exposure, Natural Red assay; assay type: cell-based; details: read-out: IC50 Molar Values
Protocol: as §3, §4

DLD-1 Colon = assay: In vitro IC50, 72 hour exposure, Natural Red assay; assay type: cell-based; details: read-out: IC50 Molar Values
Protocol: as §3, §4

SNB-7 (CNS) = assay: In vitro IC50, 72 hour exposure, Natural Red assay; assay type: cell-based; details: read-out: IC50 Molar Values
Protocol: as §3, §4

araC-resistant CEM cells = assay: Inhibition of CEM cell growth, araC-resistant; details: read-out: IC50 (nM) araC-resistant; araC-resistant CEM cells; cell numbers by Coulter Counter; mean and standard deviation from 3 experiments
Protocol: (§6) CEM cells were incubated with various concentrations of each compound and the effect on. cell numbers was determined using a Coulter Counter. The IC50 was determined from a plot of the percent of control growth versus drug concentration. The data presented are the mean and standard deviation from 3 separate experiments.

SC CAKI-1 Renal Tumor = assay: Response of SC CAKI-1 Renal Tumor to Treatment; assay type: in vivo; details: Q 4H × 3 day 7-15
Protocol: as §5

CEM cells [7] = assay: Complete metabolism of dCyd, T-dCyd, araC and T-araC in CEM cells; assay type: cell-based; details: 100 nM, incubation 1 hour
Protocol: The complete metabolism of each compound was determined: The medium was analyzed for the original compound, its deaminated form using reverse phase HPLC, and H20; the acid-soluble extract was analyzed by SAX HPLC for phosphorylated metabolites; and the incorporation of radioactivity into acid-precipitable material (DNA) was determined.

CEM cells (wild-type) = assay: Inhibition of CEM cell growth, wild-type; details: read-out: IC50 (nM) Wild-type; wild-type CEM cells; cell numbers by Coulter Counter; mean and standard deviation from 3 experiments
Protocol: as §6

Which results are given for `Nc1ccn([C@@H]2O[C@H](CO)[C@@H](O)[C@@H]2O)c(=O)n1` [araC, cytosine arabinoside]?
protein synthesis, Percent of control [1]: 96% of control; DNA synthesis, Percent of control [2]: 8% of control; Phosphorylation, Wild-type [3]: 94 pmoles/mg protein/minute; Percent Deamination (CEM cells [4]; F-dUrd 0 μM): 0%; Percent Deamination (CEM cells [4]; F-dUrd 10 μM): 10%; IC50 (SK-MEL 28 Melanoma): 2000 nM; Phosphorylation, araC-resistant CEM cells ([5]; araC-resistant CEM cell extract, 1 μm substrate): 1.2 pmoles/mg protein/minute; Percent of wild-type ([5]; phosphorylation in araC-resistant vs wild-type CEM extract): 1.3% of wild-type; RNA synthesis, Percent of control [6]: 96% of control; Days Delay (T − C) (SC HCT-116 Colon Tumor; 9 Mg/Kg IP): 2.0 days; Days to 2 Doubling (SC HCT-116 Colon Tumor; 9 Mg/Kg IP): 10.9 days; Non-Specific Deaths/Total (SC HCT-116 Colon Tumor; 9 Mg/Kg IP): 0/6; Tumor Free Surv/Total (SC HCT-116 Colon Tumor; 9 Mg/Kg IP): 0/6; Tumor Regression Number of Complete (SC HCT-116 Colon Tumor; 9 Mg/Kg IP): 0; Tumor Regression Number of Partial (SC HCT-116 Colon Tumor; 9 Mg/Kg IP): 0; Days Delay (T − C) (SC HCT-116 Colon Tumor; 13.3 Mg/Kg IP): 3.3 days; Days to 2 Doubling (SC HCT-116 Colon Tumor; 13.3 Mg/Kg IP): 12.2 days; Non-Specific Deaths/Total (SC HCT-116 Colon Tumor; 13.3 Mg/Kg IP): 0/6; Tumor Free Surv/Total (SC HCT-116 Colon Tumor; 13.3 Mg/Kg IP): 0/6; Tumor Regression Number of Complete (SC HCT-116 Colon Tumor; 13.3 Mg/Kg IP): 0; Tumor Regression Number of Partial (SC HCT-116 Colon Tumor; 13.3 Mg/Kg IP): 0; IC50 (CAK1-1 Renal): 600 nM; IC50 (NC1-H23 Lung): 300 nM; IC50 (ZR-75-1 Mammary): 400 nM; IC50 (PC-3 Prostate): 5000 nM; IC50 (LOX IMV1 Melanoma): 1000 nM; IC50 (DLD-1 Colon): 5000 nM; IC50 (SNB-7 (CNS)): 200 nM; IC50 (araC-resistant CEM cells): 800 ± 400 nM; Days Delay (T − C) (SC CAKI-1 Renal Tumor; 13.3 Mg/Kg IP): 11.0 days; Days to 3 Doubling (SC CAKI-1 Renal Tumor; 13.3 Mg/Kg IP): 20.5 days; Non-Specific Deaths/Total (SC CAKI-1 Renal Tumor; 13.3 Mg/Kg IP): 0/6; Tumor Free Surv/Total (SC CAKI-1 Renal Tumor; 13.3 Mg/Kg IP): 0/6; Tumor Regression Number of Complete (SC CAKI-1 Renal Tumor; 13.3 Mg/Kg IP): 0; Tumor Regression Number of Partial (SC CAKI-1 Renal Tumor; 13.3 Mg/Kg IP): 0; Days Delay (T − C) (SC CAKI-1 Renal Tumor; 20 Mg/Kg IP): 6.2 days; Days to 3 Doubling (SC CAKI-1 Renal Tumor; 20 Mg/Kg IP): 15.7 days; Non-Specific Deaths/Total (SC CAKI-1 Renal Tumor; 20 Mg/Kg IP): 5/6; Toxicity remark under Days Delay (T − C) (SC CAKI-1 Renal Tumor; 20 Mg/Kg IP): (Toxic); Tumor Free Surv/Total (SC CAKI-1 Renal Tumor; 20 Mg/Kg IP): 0/6; Tumor Regression Number of Complete (SC CAKI-1 Renal Tumor; 20 Mg/Kg IP): 0; Tumor Regression Number of Partial (SC CAKI-1 Renal Tumor; 20 Mg/Kg IP): 0; Days Delay (T − C) (SC CAKI-1 Renal Tumor; 30 Mg/Kg IP): 16.2 days; Days to 3 Doubling (SC CAKI-1 Renal Tumor; 30 Mg/Kg IP): 25.7 days; Non-Specific Deaths/Total (SC CAKI-1 Renal Tumor; 30 Mg/Kg IP): 5/6; Toxicity remark under Days Delay (T − C) (SC CAKI-1 Renal Tumor; 30 Mg/Kg IP): (Toxic); Tumor Free Surv/Total (SC CAKI-1 Renal Tumor; 30 Mg/Kg IP): 0/6; Tumor Regression Number of Complete (SC CAKI-1 Renal Tumor; 30 Mg/Kg IP): 0; Tumor Regression Number of Partial (SC CAKI-1 Renal Tumor; 30 Mg/Kg IP): 0; DNA (percent of total) (CEM cells [7]): 0.4% of total; Deaminated Compound (percent of total) (CEM cells [7]): 0% of total; H20 (percent of total) (CEM cells [7]): 0% of total; Original Compound (percent of total) (CEM cells [7]): 87% of total; nucleoside-TP (percent of total) (CEM cells [7]): 13% of total; IC50 (CEM cells (wild-type)): 6 ± 3 nM
